Test results reported in PubChem BioAssay (NCI).
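Compound exposure: 48 hours, 5 concentrations, 96-well plates. TGI: concentration producing complete growth inhibition.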 Where a SMILES comes first, the peptide text is derived from it.

Key:
Experiment in all cases: growth of human tumour cells (NCI), 48 h
[1] = test system: 786-0 renal
[2] = test system: A549 NSCLC
[3] = test system: COLO 205 colon
[4] = test system: HCT-15 colon
[5] = test system: IGROV1 ovarian
[6] = test system: NCI-H23 lung
[7] = test system: NCI-H522 lung
[8] = test system: OVCAR-3 ovarian
[9] = test system: SF-268 CNS
[10] = test system: SN12C renal
[11] = test system: UO-31 renal

| SMILES | TGI [1] [µM] | TGI [2] [µM] | TGI [3] [µM] | TGI [4] [µM] | TGI [5] [µM] | TGI [6] [µM] | TGI [7] [µM] | TGI [8] [µM] | TGI [9] [µM] | TGI [10] [µM] | TGI [11] [µM] |
| --- | --- | --- | --- | --- | --- | --- | --- | --- | --- | --- | --- |
| CC(Cc1ccc2c(c1)OCO2)N(C)C(=O)C1=CCN(C)CC1 (stereo unspecified) | > 100 | > 100 | > 100 | > 100 | > 100 | > 100 | > 100 | > 100 | > 100 | > 100 | > 100 |
| CC(=O)NC(CO)C(=O)NC(Cc1ccc(O)cc1)C(=O)NCC(N)=O (stereo not drawn) (Ac-Ser-Tyr-Gly-NH2; configuration not given here) | > 100 | > 100 | > 100 | > 100 | > 100 | > 100 | > 100 | > 100 | > 100 | > 100 | > 100 |
| CCOC(=O)NC(=S)NC(C)c1ccccc1 (stereo unspecified) | > 100 | > 100 | > 100 | > 100 | > 100 | > 100 | > 100 | > 100 | > 100 |  | > 100 |
| CCOP(=O)(OCC)C(=C1C=C(C(C)(C)C)C(=O)C(C(C)(C)C)=C1)P(=O)(OCC)OCC | > 5.51 | > 10 | 4.2 | > 6.87 | > 10 | > 10 | 4.29 | > 5.55 | > 10 | > 10 | > 10 |
| CCCc1cc(-c2ccc(-c3cc(CCC)c(C=O)[nH]3)s2)[nH]c1C=O | > 100 | 22.7 | > 100 | > 100 | > 100 | > 86.1 | 17.9 | > 100 | > 100 | > 100 | > 100 |
| CSc1nc(-c2ccc(Cl)cc2)c(C#N)c(=O)[nH]1 | > 100 | > 100 | > 100 | > 100 | > 100 | > 100 | > 100 | > 100 | > 100 | > 100 | > 100 |
| CC(=O)Nc1nnc(S(=O)(=O)NC(=S)Nc2ccc(Cl)cc2)s1 | > 100 | > 100 | > 100 | > 100 | > 100 | > 100 | > 100 | > 100 | > 100 | > 100 | > 100 |
| N#CCN(Cc1ccccc1)[C@@H]1CCC[C@]1(O)C#Cc1ccc2c(c1)OCO2 | 29.2 | 34.1 | 32.3 | 66.7 | 39.7 | 42 | 33.7 | 28.9 | 41.1 |  | > 100 |
| CC1=C(C)C(=O)C(C2=C(C3=CC(=O)C(C)=C(C)C3=O)C(=O)c3ccccc3C2=O)=CC1=O | 5.74 | 17.7 | 3.93 | 5.53 | 7.14 | 10.2 | 5.49 | 15.8 | 17.5 | 4.06 | 4.95 |
| CCOC(=O)c1c(NC(=O)c2ccc(Br)cc2)sc2c1CCCC2 | > 100 | > 100 | > 100 |  | > 100 | > 100 |  | > 100 | > 100 | > 100 | > 100 |
| Cn1nc(C(=O)N2CC(CCl)c3c2cc([N+](=O)[O-])c2ccccc32)cc1NC(=O)Nc1cc(C(=O)N2CC(CCl)c3c2cc([N+](=O)[O-])c2ccccc32)nn1C (stereo unspecified) | > 100 | > 100 | > 100 | > 100 |  | > 100 | > 100 | > 100 | > 100 | > 100 | > 100 |
| CC(C)(C)N=c1n(C(C)(C)C)oc(=O)n1-c1ccccc1 | > 50 | > 50 | > 50 | > 50 | > 50 | > 50 | > 50 | > 50 | > 50 | > 50 | > 50 |
| CC1(C)CC2(C)ON=C(c3ccccc3)N2c2ccccc2N1 (stereo unspecified) | 57.3 | > 100 | 45.9 | > 100 | > 100 | 82.1 | 47.3 | 33.7 | 48.2 | 84 | 43.6 |
| CSc1nc(C)c(CCCl)c(Cl)n1 | > 100 | > 100 | > 100 | > 100 | > 100 | > 100 | 49.9 | > 100 | > 100 | > 100 | > 100 |
| Cc1nc(Nc2nc3ccccc3[nH]2)[nH]c(=O)c1CCO | > 100 | > 100 | > 100 | > 100 | > 57 | > 100 | > 100 | > 100 | > 100 | > 100 | > 100 |
| CC(C)OP(=O)(OC(C)C)C(Nc1cccc(C(F)(F)F)c1)c1ccccc1 (stereo unspecified) | > 100 | > 100 | 84 | > 100 | > 100 | > 100 | > 100 | > 100 | > 100 | > 100 | > 100 |
| Cc1ccc(F)c2c(=O)cc(-c3ccccc3)[nH]c12 | > 100 | > 100 | > 100 | > 100 | > 100 | > 100 | > 100 |  | > 100 | > 100 | > 100 |
| COc1cccc(C(=O)N[C@@H]2[C@H](O)[C@@H](CO)O[C@H]2n2cnc3c(N)ncnc32)c1 | > 100 | > 100 | > 100 | > 100 | > 100 | > 100 | > 100 | > 100 | > 100 | > 100 | > 100 |
| O=[N+]([O-])c1ccc2[nH]c(O)c(N=NC(=S)Nc3ccccc3)c2c1 | 17.7 | 20.8 | > 100 | 17 | 19.6 | 25.8 |  | 22.6 |  | 25.8 | 22 |
